Active and inactive are the calls of the source.
Assays:
[1] = HPDE-C7 pancreatic duct cell viability loss – fluorescence, HTS (AID 430); type: functional, cell-based; conditions: Homo sapiens
[2] = viability loss of HPDE-C7K cells – cell-based, fluorescence, HTS, primary screen (AID 431); type: functional; conditions: Homo sapiens
[3] = viability of PTEN-deleted HCT116 cells – cell-based, HCT116 PTEN knockout, dose response (AID 1047); type: functional;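 further: HCT116 colon tumor cells with PTEN knocked out; cells exposed to compound for 60 hours before readout; potency for loss of cell viability measured by luminescence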
[4] = viability of HCT116 lacking mutant beta-catenin – cell-based, human colon tumor, dose response (AID 1045); type: functional;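 further: HCT116 colon tumor cells with beta catenin knocked out; cells exposed to compound for 60 hours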
HEK293 = assay: EBV LMP1 TES2 canonical NF-kB signalling blockers – cell-based, HEK293, luciferase, cherry-pick, dose response (AID 588343); type: functional; conditions: Homo sapiens
[5] = target: Latent membrane protein 1 (Human herpesvirus 4 (strain B95-8), UniProt P03230); assay: LMP1 TES1 pathway selectivity over dsRED control – imaging, HEK293T, dual-color eGFP/dsRED, cherry-picks, selectivity assay for LMP1 NF-kB inhibitor project, dose response (AID 588398); type: functional, cell-based
[6] = target: Dual specificity protein phosphatase 3 (Homo sapiens, UniProt P51452); assay: SAR VHR1 Fluorescent Assay for In Vitro dose response studies Set 3. [Related pubchem assays (depositor defined):AID1654, AID1661, AID1878]; type: functional
[7] = NIH-3T3 fibroblast cytotoxicity, dose response, cytotoxicity control, cell-based, fluorescence, Alamar Blue, secondary assay (AID 2327); type: functional;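 further: NIH-3T3 mouse fibroblasts cultured with fluconazole at 8 µg/mL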
cells [8] = type: functional, cell-based
[9] = fluconazole-exposed Candida albicans growth modulators – fluorescence, retest, confirmation (AID 2467); type: functional, cell-based
[10] = Trypanosoma cruzi growth suppression in host cells – NIH3T3 host cells, beta-gal luminescence, confirmation (AID 2044); type: functional, cell-based;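 further: intracellular parasites grown in NIH/3T3 mouse fibroblasts as host cells; luminescent beta-galactosidase reporter signal from transgenic T. cruzi replicating inside host cells; inhibitors lower the luminescence signal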
cells [11] = type: functional, cell-based; remark: listed apart in the source
[12] = NIH3T3 cell viability loss – ATP luminescence, mouse fibroblasts, counter-screen, dose response (AID 2010); type: functional, cell-based;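 further: cells exposed to compound for about 90 hours before reading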
[13] = target: T1, Microphthalmia-associated transcription factor (Homo sapiens, UniProt O75030); assay: reducers of TRPM1 reporter luminescence, concentration series – cell-based, SK-MEL-5, cherry-picked, set 3, MITF inhibitor project, dose response (AID 493073); type: functional;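 further: SK-MEL-5 melanoma cells with luciferase driven by the MITF target TRPM1 promoter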
T1 sequence (O75030 whole entry): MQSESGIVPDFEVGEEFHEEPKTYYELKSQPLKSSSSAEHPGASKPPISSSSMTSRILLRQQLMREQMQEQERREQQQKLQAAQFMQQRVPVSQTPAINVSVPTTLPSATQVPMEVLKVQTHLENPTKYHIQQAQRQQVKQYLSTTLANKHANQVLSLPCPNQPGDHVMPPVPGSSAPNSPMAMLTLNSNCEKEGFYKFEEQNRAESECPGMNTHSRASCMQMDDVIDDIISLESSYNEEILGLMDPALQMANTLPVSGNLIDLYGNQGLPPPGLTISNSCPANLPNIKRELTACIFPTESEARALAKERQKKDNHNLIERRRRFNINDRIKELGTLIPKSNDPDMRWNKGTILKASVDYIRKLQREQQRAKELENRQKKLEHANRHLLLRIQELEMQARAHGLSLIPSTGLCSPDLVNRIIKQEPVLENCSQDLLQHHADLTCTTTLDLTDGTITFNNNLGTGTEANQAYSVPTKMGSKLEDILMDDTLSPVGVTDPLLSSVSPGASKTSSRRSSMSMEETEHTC

A-375 = assay: MITF: Counter assay: A375 proliferation Measured in Cell-Based System Using Plate Reader - 2084-03_Inhibitor_Dose_DryPowder_Activity. [Related pubchem assays (depositor defined):AID488944]; type: functional; conditions: Homo sapiens
INS1 = assay: INS-1E survival protection against cytokine death – cell-based, luminescence, retest, dose response (AID 449756); type: functional; conditions: Rattus norvegicus;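 further: cell death triggered by IL-1 beta plus TNF-alpha plus IFN-gamma mixture; protective hits raise ATP signal compared with cytokine alone wells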
[14] = reduction of Shn3 3'UTR-driven luciferase in osteoblasts – cell-based, Clone20 osteoblasts, firefly luciferase, cherry-picked, dose response (AID 624132); type: functional;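 further: firefly luciferase luminescence from reporter carrying the Shn3 3'UTR in osteoblasts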
[15] = loss of viability in HepG2 cells – cell-based, CellTiter-Glo, cherry-picked, cytotoxicity control for Shn3 inhibitor project, dose response (AID 624134); type: functional
[16] = non-specific 3'UTR reporter inhibition in Clone20-Shn3RL – cell-based, Renilla luciferase, cherry-picked, counter-screen for Shn3 inhibitor project, dose response (AID 624133); type: functional
[17] = target: T2, Tyrosine-protein phosphatase non-receptor type 7 (Homo sapiens, UniProt P35236); type: functional
T2 sequence (P35236 whole entry): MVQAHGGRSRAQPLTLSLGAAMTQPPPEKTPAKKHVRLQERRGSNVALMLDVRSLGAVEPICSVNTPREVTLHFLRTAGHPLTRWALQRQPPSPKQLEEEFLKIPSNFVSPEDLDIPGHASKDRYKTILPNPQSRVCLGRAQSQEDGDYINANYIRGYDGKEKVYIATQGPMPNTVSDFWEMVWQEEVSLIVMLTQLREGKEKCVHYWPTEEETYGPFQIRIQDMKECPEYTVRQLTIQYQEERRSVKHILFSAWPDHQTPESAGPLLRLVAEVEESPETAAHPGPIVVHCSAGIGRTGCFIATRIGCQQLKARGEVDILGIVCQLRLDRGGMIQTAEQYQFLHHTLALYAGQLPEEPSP

[18] = target: Glyceraldehyde-3-phosphate dehydrogenase (Homo sapiens, UniProt P04406)
[19] = target: T3, Dual specificity protein phosphatase 6 (Rattus norvegicus, UniProt Q64346)
[20] = target: T3, Dual specificity protein phosphatase 6; type: functional

T3 sequence (Q64346 whole entry): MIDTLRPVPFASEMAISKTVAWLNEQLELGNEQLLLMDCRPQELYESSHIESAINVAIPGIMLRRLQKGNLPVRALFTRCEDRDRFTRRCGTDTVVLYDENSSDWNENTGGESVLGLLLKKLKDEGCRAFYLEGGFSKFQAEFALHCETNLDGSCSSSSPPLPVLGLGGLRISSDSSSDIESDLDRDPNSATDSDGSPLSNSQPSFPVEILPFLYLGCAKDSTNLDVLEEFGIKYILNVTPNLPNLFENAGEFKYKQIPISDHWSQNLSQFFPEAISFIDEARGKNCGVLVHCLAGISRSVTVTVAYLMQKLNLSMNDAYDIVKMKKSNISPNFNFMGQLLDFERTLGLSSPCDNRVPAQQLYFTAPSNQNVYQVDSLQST
Chain of Dual specificity protein phosphatase 3 (P51452 whole entry): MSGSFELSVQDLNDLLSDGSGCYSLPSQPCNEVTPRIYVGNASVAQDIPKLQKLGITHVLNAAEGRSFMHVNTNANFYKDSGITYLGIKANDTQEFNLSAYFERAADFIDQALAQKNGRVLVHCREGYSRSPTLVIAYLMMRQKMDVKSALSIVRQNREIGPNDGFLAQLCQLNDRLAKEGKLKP
Chain of Latent membrane protein 1 (P03230 whole entry): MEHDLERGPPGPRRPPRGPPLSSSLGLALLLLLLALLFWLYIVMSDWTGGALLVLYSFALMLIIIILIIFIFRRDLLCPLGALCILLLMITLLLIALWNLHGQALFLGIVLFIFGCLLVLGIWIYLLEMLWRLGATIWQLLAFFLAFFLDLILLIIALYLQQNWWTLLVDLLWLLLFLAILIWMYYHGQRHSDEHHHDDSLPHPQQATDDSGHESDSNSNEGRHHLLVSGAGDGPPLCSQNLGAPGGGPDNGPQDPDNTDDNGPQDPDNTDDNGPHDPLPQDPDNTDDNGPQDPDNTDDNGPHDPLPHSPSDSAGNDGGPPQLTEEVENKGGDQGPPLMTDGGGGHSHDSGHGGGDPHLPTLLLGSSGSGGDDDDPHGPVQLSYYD
Chain of Glyceraldehyde-3-phosphate dehydrogenase (P04406 whole entry): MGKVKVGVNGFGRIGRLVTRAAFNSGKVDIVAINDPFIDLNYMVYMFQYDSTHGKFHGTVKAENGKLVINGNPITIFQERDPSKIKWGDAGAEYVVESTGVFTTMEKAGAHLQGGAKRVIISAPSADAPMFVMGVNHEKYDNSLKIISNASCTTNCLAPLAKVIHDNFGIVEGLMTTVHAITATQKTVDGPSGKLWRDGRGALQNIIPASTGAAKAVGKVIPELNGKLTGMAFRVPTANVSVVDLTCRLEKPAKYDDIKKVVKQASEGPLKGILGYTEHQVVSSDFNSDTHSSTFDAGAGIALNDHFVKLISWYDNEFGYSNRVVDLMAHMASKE

COc1ccc(C(=O)C(CN2CCOCC2)c2ccccc2)cc1F (stereo not drawn)
active: EC50 [1] 5.54 µM | EC50 [2] 8.65 µM | EC50 [3] 2.19 µM | EC50 [4] 1.31 µM | AC50 (HEK293) 13.2 µM | AC50 [5] 5.06 µM

COc1cccc2sc(NC(=O)c3cccc(C(F)(F)F)c3)nc12
inactive: IC50 [6] > 66 µM

COc1cnc(-c2ccccn2)nc1NC(C)C
> 38 µM (not active): EC50 [9]
> 350 µM (not active): EC50 (cells [11])
active: EC50 [7] 23.1 µM | EC50 (cells [8]) 19.7 µM | EC50 [10] 2.05 µM | EC50 [12] 3.77 µM | AC50 [13] 12.4 µM | AC50 (A-375) 37.1 µM | AC50 (INS1) 7.93 µM | AC50 [14] 2.81 µM | AC50 [15] 5.96 µM | AC50 [16] 3.16 µM

COCCCNc1nc(=O)n(-c2ccc(C)cc2)c(=O)[nH]1
> 100 µM (not active): IC50 [17] | IC50 [18]
inactive: IC50 [19] > 100 µM | IC50 [20] > 100 µM

Reference: ChEMBL document CHEMBL1201862, “PubChem BioAssay data set” (2004)
